In patent publication US20260055137A1, “NOVEL ISOLATED PEPTIDES, PROTEIN HYDROLYSATE COMPRISING THE SAID ISOLATED PEPTIDES AND USE THEREOF” (BETAGRO PUBLIC COMPANY LIMITED, priority 2022, published 2026):
No end group written: not given here.

Experiments:
sensory panel [1] = assay: Taste threshold in water (intrinsic taste), duo-trio tests; assay type: in vivo
Protocol: (§1) The threshold concentrations of 21 newly identified peptides were determined in water for the intrinsic taste and in model broth (pH 6.0 adjusted with 1% formic acid) for the taste modulating properties, respectively (Table 4). The peptides were dissolved, serially diluted 1:2, and presented to the panel using duo-trio-tests with ascending concentrations as reported in literatures. The geometric mean of the last and the second to last concentration was calculated and taken as the individual recognition threshold. The threshold value of the sensory panel was approximated by averaging the threshold values of the individuals in two independent sessions. [formula] • wherein • Cp: the threshold of a panelist, • C1: the first correctly evaluated concentration, • C0: the first misjudged concentration [formula] • wherein • Cs: the thresholds of total panelists, • Cp: the threshold of a panelist, • n: the number of panel members

sensory panel [2] = assay: Taste threshold in model broth (taste modulating properties), duo-trio tests; assay type: in vivo; conditions: for Threshold in model broth / Taste properties in model broth: model broth pH 6.0; for Threshold in model broth: taste modulating threshold; for Taste threshold in model broth: as listed in Table 6
Protocol: as §1

Panelists = assay: Salt isointensity test; assay type: in vivo; conditions: for Average perceived salt isointensity / Salt-taste enhancing or reducing property: peptide 1 mmol/L in model broth containing 50 mM NaCl; for Enhancement or reduction: versus 50 mM NaCl, isointensity above 50 = enhancement, below 50 = reduction, peptide 1 mmol/L
Protocol: To investigate the effects of peptides on the perceived saltiness, a salt isointensity test was performed according to literatures. In salt-isointensity test, the peptides (1 mmol/L) were spiked into model broth containing 50 mM NaCl and the panelists were asked to evaluate the intensity of saltiness compared with the following NaCl concentrations of 30, 40, 50, 60, 70, and 80 mmol/L. The results are shown in Table 5.

[3] = Quantification of peptides in the hydrolyzed chicken plasma sample and DoT factors; conditions: ratio of concentration in hydrolyzed chicken plasma sample to taste threshold in model broth
From the text: To identify the peptides which play a key role on taste-active and taste-modulating effects, not only the 21 newly identified peptides, but also literature-known basic tastants (e.g., amino acids, γ-glutamyl peptides, cations, anions, etc.) were quantified in the hydrolyzed chicken plasma sample. Focusing on the 21 newly identified peptides, the taste quality, taste thresholds, dose over threshold (DOT) factors and concentrations of the peptides in the hydrolyzed chicken plasma sample are shown in Table 6. The taste thresholds determined for the newly identified peptides (those are listed in Table 6) were used for the calculation of DoT factors which are defined as the ratio of the concentration of a substance and its corresponding taste threshold concentration. The DoT factors enable a first estimation of the taste contribution as substances with DoT factors≥1 most likely contribute directly to the perceived taste.

sensory panel [4] = assay: Taste threshold in model broth (taste modulating properties), duo-trio tests; assay type: in vivo; conditions: as listed in Table 7
sensory panel [5] = assay: Taste threshold in commercial chicken soup, duo-trio tests; assay type: in vivo; conditions: for Taste threshold in food products, Commercial chicken soup: 3 g powder in 150 mL, spiked at 2 mmol/L, diluted
From the text: To investigate the taste-modulating performance of the identified peptides in food products, the commercial chicken soup and model broth were used for further sensory experiments. According to the sensory experiment, the peptides such as Pro-Val-Leu-Lys (SEQ ID NO: 1), Pro-Leu-Pro-Arg (SEQ ID NO: 2), Glu-Ala-Glu-Phe-Asp (SEQ ID NO: 3), Pro-Gln-Pro-Glu-Arg (SEQ ID NO: 5), and Glu-Asp-Ala-Pro-Val-Leu-His (SEQ ID NO: 7) are spiked into the commercial chicken soup (Netto Marken-Discount AG&CO.KG, Maxhütte-Haidhof) and the model broth. According to the experiments, 3 g of the commercial chicken soup powder was dissolved in 150 mL boiling water. The peptides (each 2 mmol/L) were spiked into 20 mL solution of this solution. Afterwards, the taste threshold was determined by means of duo-trio-tests as previously described (using chicken soup as reference).

In the case of EDEVLATP [SEQ ID NO: 21], the Threshold in water (sensory panel [1]) is reported as 894 µmol/L, the “Threshold in model broth” value (sensory panel [2]) is reported as 96 µmol/L and the “Average perceived salt isointensity” value (Panelists) is reported as 59.8 mmol/L NaCl. The “Salt-taste enhancing or reducing property” value (Panelists) was “salt-tase enhancing” and the Enhancement or reduction (Panelists) was 20%.

For EFDARPT [SEQ ID NO: 8], the Threshold in water (sensory panel [1]) was “tasteless”, the “Taste properties in model broth” value (sensory panel [2]) was “kokumi, salty” and the “Threshold in model broth” value (sensory panel [2]) was 351 µmol/L. The “Average perceived salt isointensity” value (Panelists) was 66.7 mmol/L NaCl, the “Salt-taste enhancing or reducing property” value (Panelists) was “salt-tase enhancing” and the Enhancement or reduction (Panelists) was 33%. It also gave a DoT factor [3] of 0.0.

For EFDEKAPD [SEQ ID NO: 11], the “Taste properties in water” value (sensory panel [1]) was “bitter”, the Threshold in water (sensory panel [1]) was 865 µmol/L and the “Threshold in model broth” value (sensory panel [2]) was 67 µmol/L. For the same substance, the “Average perceived salt isointensity” value (Panelists) was 62.1 mmol/L NaCl, the “Salt-taste enhancing or reducing property” value (Panelists) was “salt-tase enhancing” and the Enhancement or reduction (Panelists) was 24%.

With EGDSAAI [SEQ ID NO: 19] the Threshold in water (sensory panel [1]) was “tasteless”, the “Taste properties in model broth” value (sensory panel [2]) was “umami, kokumi” and the “Threshold in model broth” value (sensory panel [2]) was 212 µmol/L. It also gave a DoT factor [3] of 0.2.

With EETPSHD [SEQ ID NO: 9] the Threshold in water (sensory panel [1]) was 283 µmol/L, the “Taste properties in model broth” value (sensory panel [2]) was “umami, kokumi” and the “Threshold in model broth” value (sensory panel [2]) was 36 µmol/L. For the same substance, the DoT factor [3] was 0.1.

With “Glu-Ala-Glu-Phe-Asp (EAEFD; Poultry) [SEQ ID NO: 3]” the Threshold in water (sensory panel [1]) was 116 µmol/L, the “Taste threshold in model broth” value (sensory panel [2]) was 95 µmol/L and the “Average perceived salt isointensity” value (Panelists) was 43.0 mmol/L NaCl. The “Salt-taste enhancing or reducing property” value (Panelists) was “salt-tase reducing”, the Enhancement or reduction (Panelists) was 14% and the “Taste threshold in food products, Model broth” value (sensory panel [4]) was 95 µmol/L.

In the case of RAEDTATYY [SEQ ID NO: 18], the Threshold in water (sensory panel [1]) is reported as 610 µmol/L, the “Taste properties in model broth” value (sensory panel [2]) is reported as “kokumi, umami” and the “Threshold in model broth” value (sensory panel [2]) is reported as 247 µmol/L. It also gave a DoT factor [3] of 0.0.

In the case of “Glu-Asp-Met-Ala-Pro (EDMAP; Poultry) [SEQ ID NO: 13]”, the Threshold in water (sensory panel [1]) is reported as 1024 µmol/L, the “Taste properties in model broth” value (sensory panel [2]) is reported as “kokumi, salty” and the “Threshold in model broth” value (sensory panel [2]) is reported as 151 µmol/L. For the same substance, the “Average perceived salt isointensity” value (Panelists) was 43.8 mmol/L NaCl, the Enhancement or reduction (Panelists) was 13% and the DoT factor [3] was 0.2.

In the case of ENAPDQK [SEQ ID NO: 12], the Threshold in water (sensory panel [1]) is reported as 907 µmol/L, the “Taste properties in model broth” value (sensory panel [2]) is reported as “kokumi, umami” and the “Threshold in model broth” value (sensory panel [2]) is reported as 137 µmol/L. It also gave a DoT factor [3] of 0.2.

In the case of “Pro-Val-Ala-Glu (PVAE; Poultry) [SEQ ID NO: 16]”, the Threshold in water (sensory panel [1]) is reported as 688 µmol/L, the “Taste properties in model broth” value (sensory panel [2]) is reported as “kokumi, salty” and the “Threshold in model broth” value (sensory panel [2]) is reported as 243 µmol/L. For the same substance, the “Average perceived salt isointensity” value (Panelists) was 62.0 mmol/L NaCl, the “Salt-taste enhancing or reducing property” value (Panelists) was “salt-tase enhancing” and the Enhancement or reduction (Panelists) was 24%. It also gave a DoT factor [3] of 0.7.

For EFDEKPAD [SEQ ID NO: 6], the Threshold in water (sensory panel [1]) was “tasteless”, the “Threshold in model broth” value (sensory panel [2]) was 94 µmol/L and the “Average perceived salt isointensity” value (Panelists) was 60.0 mmol/L NaCl. For the same substance, the “Salt-taste enhancing or reducing property” value (Panelists) was “salt-tase enhancing” and the Enhancement or reduction (Panelists) was 20%.

In the case of “Pro-Gln-Pro-Glu-Arg (PQPER; Poultry) [SEQ ID NO: 5]”, the Threshold in water (sensory panel [1]) is reported as 705 µmol/L, the “Threshold in model broth” value (sensory panel [2]) is reported as 133 µmol/L and the DoT factor [3] is reported as 0.0. The “Not differentiated up to max concentration tested in commercial chicken soup” value (sensory panel [5]; commercial chicken soup) was over 2 mmol/L, the “Taste threshold in food products, Commercial chicken soup” value (sensory panel [5]; commercial chicken soup) was “No effect” and the “Taste threshold in food products, Model broth” value (sensory panel [4]) was 133 µmol/L.

In the case of EPEGDVHQ [SEQ ID NO: 20], the Threshold in water (sensory panel [1]) is reported as 243 µmol/L, the “Taste properties in model broth” value (sensory panel [2]) is reported as “umami, kokumi” and the “Threshold in model broth” value (sensory panel [2]) is reported as 61 µmol/L.

In the case of “Pro-Leu-Pro-Arg (PLPR; Poultry) [SEQ ID NO: 2]”, the “Taste properties in water” value (sensory panel [1]) is reported as “astringent”, the Threshold in water (sensory panel [1]) is reported as 296 µmol/L and the “Taste properties in model broth” value (sensory panel [2]) is reported as “umami, kokumi”. For the same substance, the “Threshold in model broth” value (sensory panel [2]) was 112 µmol/L, the DoT factor [3] was 0.0 and the “Threshold in model broth, times lower than in commercial chicken soup” value (sensory panel [5]; chicken soup versus model broth) was 4 times. The “Taste threshold in food products, Commercial chicken soup” value (sensory panel [5]; commercial chicken soup) was 418 µmol/L and the “Taste threshold in food products, Model broth” value (sensory panel [4]) was 112 µmol/L.

In the case of “Pro-Glu-Arg-Asn-Glu (PERNE; Poultry) [SEQ ID NO: 4]”, the Threshold in water (sensory panel [1]) is reported as 100 µmol/L, the “Threshold in model broth” value (sensory panel [2]) is reported as 231 µmol/L and the DoT factor [3] is reported as 0.1.

In the case of “Pro-Ile-Asn-Asp-Asn (PINDN; Poultry) [SEQ ID NO: 14]”, the Threshold in water (sensory panel [1]) is reported as “tasteless”, the “Threshold in model broth” value (sensory panel [2]) is reported as 26 µmol/L and the “Average perceived salt isointensity” value (Panelists) is reported as 63.6 mmol/L NaCl. The “Salt-taste enhancing or reducing property” value (Panelists) was “salt-tase enhancing” and the Enhancement or reduction (Panelists) was 27%.

For “Pro-Thr-Asp-Leu (PTDL; Poultry) [SEQ ID NO: 15]”, the Threshold in water (sensory panel [1]) was “tasteless” and the “Threshold in model broth” value (sensory panel [2]) was 97 µmol/L.

With “Pro-Val-Leu-Lys (PVLK; Poultry) [SEQ ID NO: 1]” the Threshold in water (sensory panel [1]) was “tasteless”, the “Threshold in model broth” value (sensory panel [2]) was 296 µmol/L and the “Average perceived salt isointensity” value (Panelists) was 42.9 mmol/L NaCl. For the same substance, the “Salt-taste enhancing or reducing property” value (Panelists) was “salt-tase reducing”, the Enhancement or reduction (Panelists) was 14% and the DoT factor [3] was 0.0. For the same substance, the “Taste threshold in food products, Model broth” value (sensory panel [4]) was 296 µmol/L.

In the case of EEVEEEEVE [SEQ ID NO: 10], the Threshold in water (sensory panel [1]) is reported as 233 µmol/L, the “Taste properties in model broth” value (sensory panel [2]) is reported as “umami, kokumi” and the “Threshold in model broth” value (sensory panel [2]) is reported as 34 µmol/L. For the same substance, the DoT factor [3] was 0.1.

In the case of “Arg-Asn-Gly-Pro-Arg (RNGPR; Poultry) [SEQ ID NO: 17]”, the Threshold in water (sensory panel [1]) is reported as “tasteless”, the “Taste properties in model broth” value (sensory panel [2]) is reported as “kokumi, umami” and the “Threshold in model broth” value (sensory panel [2]) is reported as 101 µmol/L. It also gave a DoT factor [3] of 0.0.

With EDAPVLH [SEQ ID NO: 7] the “Taste properties in water” value (sensory panel [1]) was “astringent”, the Threshold in water (sensory panel [1]) was 565 µmol/L and the “Taste threshold in model broth” value (sensory panel [2]) was 236 µmol/L. For the same substance, the DoT factor [3] was 0.1 and the “Taste threshold in food products, Model broth” value (sensory panel [4]) was 236 µmol/L.
